Data taken from patent publication US11801231B2, “Oral compositions and methods of use” (3M INNOVATIVE PROPERTIES COMPANY, priority 2017, dated 2023).

Tested on: Streptococcus mutans biofilm
Assay: Biofilm disruption test (modified MBEC assay)
Assay type: cell-based, Streptococcus mutans (ATCC 25175)
Description: In some embodiments, disclosed compositions can prevent, inhibit, disrupt, disperse, reduce the formation or maintenance of a biofilm in an area contacted with the composition. In some embodiments, a composition can prevent, inhibit, disrupt, disperse, reduce the formation or maintenance of a biofilm in a mouth of a user where the composition was applied to the mouth when compared to a mouth without the composition applied thereto. […] Preventing, inhibiting, disrupting, dispersing, reducing, controlling, or some combination thereof the formation or maintenance of biofilms can be measured using a modified version of the MBEC assay (described in ASTM E2799), which measures disruption of Streptococcus mutans biofilms grown on special pegs in a microtiter plate. […] The biofilm remaining on each peg following treatment is quantified by measuring the amount of fluorescently labeled bacteria that eluted from the pegs at the end of the treatment cycles (see example). […] Decreasing plaque buildup can be measured by a variety of methods in vivo including for example plaque scoring, dyeing of plaque, etc.
This method utilizes the high throughput MBEC assay system (Innovotech, Calgary, AB Canada). The method evaluates efficacy of a treatment in disrupting biofilm by quantifying the amount of fluorescent-labeled biofilm remaining on MBEC inoculator pegs after exposure to relevant treatment conditions. […]

## N=C(NCCCCCCNC(=N)NC(=N)Nc1ccc(Cl)cc1)NC(=N)Nc1ccc(Cl)cc1.O=C(O)[C@H](O)[C@@H](O)[C@H](O)[C@H](O)CO.O=C(O)[C@H](O)[C@@H](O)[C@H](O)[C@H](O)CO [0.1% CHG, chlorhexidine gluconate]
Normalized to PBS negative control in the same plate, low value = more biofilm disruption
  Normalized Relative Fluorescence (%): 3.8%
Two 1-minute treatment cycles, biofilm eluted from MBEC pegs, ex 488 nm, em 525 nm
  Fluorescence intensity of Alexafluor 488-labeled S. mutans biofilm matrix: 1281 a.u.
